The values that follow come from patent US10414775B2 (Merck Sharp & Dohme Corp., priority 2016, dated 2019).

This data set deals with T1, Human CYP8B1 (Homo sapiens, UniProt Q9UNU6).
T1 construct: tissue Xenotech; host or cells: human liver microsomes
T1 sequence (Q9UNU6 1-501): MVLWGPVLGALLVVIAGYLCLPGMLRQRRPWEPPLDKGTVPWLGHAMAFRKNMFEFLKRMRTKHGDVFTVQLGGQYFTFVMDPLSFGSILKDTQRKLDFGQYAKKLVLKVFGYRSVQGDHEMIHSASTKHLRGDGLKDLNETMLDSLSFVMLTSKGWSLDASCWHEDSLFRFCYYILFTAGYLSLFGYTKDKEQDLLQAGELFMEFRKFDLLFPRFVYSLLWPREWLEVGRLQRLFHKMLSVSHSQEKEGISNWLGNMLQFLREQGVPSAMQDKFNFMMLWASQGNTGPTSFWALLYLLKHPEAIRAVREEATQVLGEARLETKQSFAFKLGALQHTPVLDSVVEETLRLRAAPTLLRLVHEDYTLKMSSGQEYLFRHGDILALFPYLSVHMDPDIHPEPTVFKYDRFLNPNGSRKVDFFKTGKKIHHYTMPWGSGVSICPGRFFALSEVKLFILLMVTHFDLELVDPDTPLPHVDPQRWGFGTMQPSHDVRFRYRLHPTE
Description: Human Cyp8B1 Liver Microsome Assay. Type of data set: biochemical. As to conditions: human liver microsomes; substrate 7α-hydroxy-4-cholesten-3-one, NADPH; 30 min pre-incubation, 45 min reaction; RapidFire MS readout. As for the experimental part:
Human Cyp8B1 Liver Microsome Assay To a 384 well polypropylene plate (Corning 3656), 250 nl of inhibitor in 100% DMSO (1.25% final DMSO concentration) was pre-plated using an Echo liquid handler (Labcyte Inc.). Human liver microsomes (Xenotech) were diluted in of 0.1 M phosphate buffer, pH 7.4, at a concentration of 65 μg/ml and 15 μL was added to the 384 well plate. The plates were incubated at ambient room temperature for 30 minutes. After pre-incubation with inhibitor, the reaction was initiated by adding 5 μl of substrate solution (4.0 μM 7α-hydroxy-4-cholesten-3-one(Toronto Research Chemicals), 2 mM of NADPH (Sigma), 0.1 M phosphate buffer (pH 7.4). The reaction was carried out for 45 minutes at ambient room temperature and was quenched by the addition of 50 μl of acetonitrile+0.1% vol/vol formic acid (FA)+300 nM 7α-hydroxy-4-cholesten-3-one-d7 (Toronto Research Chemicals). The plates were sealed and centrifuged at 3000 rpm for 5 minutes. Plates were loaded onto the Agilent RapidFire RF300 HTMS system, wherein samples were sipped for 600 ms, and the sip sensor detection signals the diversion of sample from the loop onto a C4 solid phase extraction (SPE) cartridge, where salts are washed off for 2500 ms with a mobile phase of water with 0.1% vol/vol FA at a flow rate of 1.5 ml/min. The column path is switched, and the sample is eluted off the cartridge and flowed into the mass spectrometer for 3000 ms with a mobile phase of acetonitrile and 0.1% vol/vol FA at a flow rate of 1.25 ml/min. The aspirator tip was washed separately with water and acetonitrile between sample aspirations (each for 600 ms) to minimize carryover contamination. Mass spectrometry was carried out using a Sciex API4000 triple quadrupole mass spectrometer (Applied Biosystems, Concord, ON, Canada) equipped with electrospray ionization (ESI) operated in the positive-ion mode. The product 7α, 12α-dihydroxy-4-cholesten-3-one and internal standard 7α-hydroxy-4-cholsten-3-one-d7 were detected using multiple reaction monitoring (MRM) with Q1/Q3 transitions at m/z 417.3 to 381.3 and m/z 408.3 to 390.3, respectively, with a dwell time of 100 ms and a collision energy of 24 V for each transition. The mass spectrometer used an ESI voltage of 5000 V and a source temperature of 650° C. Extracted ion chromatograms for each transition were integrated and processed using the RapidFire Integrator software. The data for each well were normalized by monitoring product conversion with the ratio of AUCproduct/(AUCinternal standard). The data was then fitted to a four parameter logistic fit using ActivityBase Software to calculate an IC50 of the inhibitor.

For the molecule `C[C@@H]1CN(c2c(C(N)=O)cnc3cc(OCC4CC4)ccc23)CC[C@@H]1C(=O)N1CCn2c(nnc2C(F)(F)F)C1` [Example 39, 7-(cyclopropylmethoxy)-4-[(3S,4S)-3-methyl-4-{[3-(trifluoromethyl)-5,6-dihydro[1,2,4]triazolo[4,3-a]pyrazin-7(8H)-yl]carbonyl}piperidin-1-yl]quinoline-3-carboxamide], 5290 pM corresponded to half-maximal inhibition (IC50). In the case of `C[C@@H]1CN(c2c(Cl)c[n+]([O-])c3cc(C(F)(F)F)ccc23)CC[C@@H]1C(=O)N1CCn2c(nnc2C(F)(F)F)C1` [Example 40, {(3S,4S)-1-[3-chloro-1-oxido-7-(trifluoromethyl)quinolin-4-yl]-3-methylpiperidin-4-yl}[3-(trifluoromethyl)-5,6-dihydro[1,2,4]triazolo[4,3-a]pyrazin-7(8H)-yl]methanone] it was 800 pM. The molecule `COc1ccc2c(N3CC[C@H](C(=O)N4CCn5c(nnc5C(F)(F)F)C4)[C@H](C)C3)c(Cl)cnc2c1F` [Example 41, [(3S,4S)-1-(3-chloro-8-fluoro-7-methoxyquinolin-4-yl)-3-methylpiperidin-4-yl][3-(trifluoromethyl)-5,6-dihydro[1,2,4]triazolo[4,3-a]pyrazin-7(8H)-yl]methanone] showed a half-inhibitory concentration (IC50) of 380 pM. `C[C@@H]1CN(c2c(Cl)cnc3cc(Br)ccc23)CC[C@@H]1C(=O)N1CCn2c(nnc2C(F)(F)F)C1` [Example 42, [(3S,4S)-1-(7-bromo-3-chloroquinolin-4-yl)-3-methylpiperidin-4-yl][3-(trifluoromethyl)-5,6-dihydro[1,2,4]triazolo[4,3-a]pyrazin-7(81)-yl]methanone] registered an IC50 of 440 pM. The result for `CC(=O)c1ccc2c(N3CC[C@H](C(=O)N4CCn5c(nnc5C(F)(F)F)C4)[C@H](C)C3)c(Cl)cnc2c1` [Example 43, 1-{3-chloro-4-[(3S,4S)-3-methyl-4-{[3-(trifluoromethyl)-5,6-dihydro[1,2,4]triazolo[4,3-a]pyrazin-7(8H)-yl]carbonyl}piperidin-1-yl]quinolin-7-yl}ethanone] reads 280 pM; that for `C[C@@H]1CN(c2c(F)cnc3cc(C(F)(F)F)ccc23)CC[C@@H]1C(=O)N1CCn2c(nnc2C(F)(F)F)C1` [Example 45, {(3S,4S)-1-[3-fluoro-7-(trifluoromethyl)quinolin-4-yl]-3-methylpiperidin-4-yl}[3-(trifluoromethyl)-5,6-dihydro[1,2,4]triazolo[4,3-a]pyrazin-7(8H)-yl]methanone], 250 pM; that for `C[C@@H]1CN(c2ccnc3cc(C(C)(F)F)ccc23)CC[C@@H]1C(=O)N1CCn2c(nnc2C(F)(F)F)C1` [Example 46, {(3S,4S)-1-[7-(1,1-difluoroethyl)quinolin-4-yl]-3-methylpiperidin-4-yl}[3-(trifluoromethyl)-5,6-dihydro[1,2,4]triazolo[4,3-a]pyrazin-7(8H)-yl]methanone], 1100 pM.

For the molecule `C[C@@H]1CN(c2c(F)cnc3cc(C(C)(F)F)ccc23)CC[C@@H]1C(=O)N1CCn2c(nnc2C(F)(F)F)C1` [Example 47, {(3S,4S)-1-[7-(1,1-difluoroethyl)-3-fluoroquinolin-4-yl]-3-methylpiperidin-4-yl}[3-(trifluoromethyl)-5,6-dihydro[1,2,4]triazolo[4,3-a]pyrazin-7(8H)-yl]methanone], half-maximal inhibition (IC50) was put at 570 pM. In the case of `C[C@@H]1CN(c2c(F)cnc3cc(Cl)ccc23)CC[C@@H]1C(=O)N1CCn2c(nnc2C(F)(F)F)C1` [Example 48, [(3S,4S)-1-(7-chloro-3-fluoroquinolin-4-yl)-3-methylpiperidin-4-yl][3-(trifluoromethyl)-5,6-dihydro[1,2,4]triazolo[4,3-a]pyrazin-7(8H)-yl]methanone] it was 1700 pM; in that of `C[C@@H]1CN(c2c(Cl)cnc3cc(C(C)(F)F)ccc23)CC[C@@H]1C(=O)N1CCn2c(nnc2C(F)(F)F)C1` [Example 49, {(3S,4S)-1-[3-chloro-7-(1,1-difluoroethyl)quinolin-4-yl]-3-methylpiperidin-4-yl}[3-(trifluoromethyl)-5,6-dihydro[1,2,4]triazolo[4,3-a]pyrazin-7(8H)-yl]methanone], 460 pM. The result for `C[C@@H]1CN(c2c(Cl)cnc3cc(C4CC4)ccc23)CC[C@@H]1C(=O)N1CCn2c(nnc2C(F)(F)F)C1` [Example 50, [(3S,4S)-1-(3-chloro-7-cyclopropyl-quinolin-4-yl)-3-methylpiperidin-4-yl][3-(trifluoromethyl)-5,6-dihydro[1,2,4]triazolo[4,3-a]pyrazin-7(8H) - yl]methanone] reads 250 pM. The result for `C[C@@H]1CN(c2c(Cl)cnc3cc(OCC4CC4)ccc23)CC[C@@H]1C(=O)N1CCn2c(nnc2C(F)(F)F)C1` [Example 51] reads 220 pM. Regarding `Cc1cnc2cc(C(C)(F)F)ccc2c1N1CC[C@H](C(=O)N2CCn3c(nnc3C(F)(F)F)C2)[C@H](C)C1` [Example 52, {(3S,4S)-1-[7-(1,1-difluoroethyl)-3-methylquinolin-4-yl]-3-methylpiperidin-4-yl}[3-(trifluoromethyl)-5,6-dihydro[1,2,4]triazolo[4,3-a]pyrazin-7(8H)-yl]methanone], the 50% inhibitory concentration (IC50) is 310 pM. This IC50 and that of the molecule before are within 1.5-fold of each other. The result for `C[C@@H]1CN(c2ccnc3cc(OCC4CC4)ccc23)CC[C@@H]1C(=O)N1CCn2c(nnc2C(F)(F)F)C1` [Example 53, {(3S,4S)-1-[7-(cyclopropylmethoxy)quinolin-4-yl]-3-methylpiperidin-4-yl}[3-(trifluoromethyl)-5,6-dihydro[1,2,4]triazolo[4,3-a]pyrazin-7(8H)-yl]methanone] reads 3600 pM; that for `C[C@@H]1CN(c2c(C(F)F)cnc3cc(C4CC4)ccc23)CC[C@@H]1C(=O)N1CCn2c(nnc2C(F)(F)F)C1` [Example 54, {(3S,4S)-1-[7-cyclopropyl-3-(difluoromethyl)quinolin-4-yl]-3-methylpiperidin-4-yl}[3-(trifluoromethyl)-5,6-dihydro[1,2,4]triazolo[4,3-a]pyrazin-7(81H)-yl]methanone], 610 pM. `C[C@@H]1CN(c2c(Cl)cnc3cc(C(F)(F)F)ccc23)CC[C@@H]1C(=O)N1CCn2c(nnc2C(F)(F)F)C1` [Example 55, ((3S,4S)-1-(3-chloro-7-(trifluoromethyl)quinolin-4-yl)-3-methylpiperidin-4-yl)(3-(trifluoromethyl)-5,6-dihydro-[1,2,4]triazolo[4,3-a]pyrazin-7(8H)-yl)methanone] yielded an IC50 of 200 pM. Against the preceding molecule, the IC50 is about 3-fold lower. In the case of `C[C@@H]1CN(c2c(F)cnc3cc(C(F)F)ccc23)CC[C@@H]1C(=O)N1CCn2c(nnc2C(F)(F)F)C1` [Example 56, ((3S,4S)-1-(7-(difluoromethyl)-3-fluoroquinolin-4-yl)-3-methylpiperidin-4-yl)(3-(trifluoromethyl)-5,6-dihydro-[1,2,4]triazolo[4,3-a]pyrazin-7(8H)-yl)methanone] it was 460 pM; in that of `C[C@@H]1CC(c2c(Cl)cnc3cc(C(F)F)ccc23)CCN1C(=O)N1CCn2c(nnc2C(F)(F)F)C1` (stereo partly drawn) [Example 57, ((2R)-4-(3-chloro-7-(difluoromethyl)quinolin-4-yl)-2-methylpiperidin-1-yl)(3-(trifluoromethyl)-5,6-dihydro-[1,2,4]triazolo [4,3-a]pyrazin-7(8H)-yl)methanone], 320 pM; in that of `C[C@@H]1CN(c2ccnc3cc(C(F)F)ccc23)CC[C@@H]1C(=O)N1CCn2c(nnc2C(F)(F)F)C1` [Example 58, ((3S,4S)-1-(7-(difluoromethyl)quinolin-4-yl)-3-methylpiperidin-4-yl)(3-(trifluoromethyl)-5,6-dihydro-[1,2,4]triazolo[4,3-a]pyrazin-7(8H)-yl)methanone], 5970 pM.

The IC50 is the concentration that inhibits the measured activity by half.
